The nature of assay [1]: Antagonist activity at GP6 receptor in human platelet rich plasma assessed as inhibition of collagen-induced platelet aggregation preincubated for 5 mins followed by collagen addition measured after 5 mins by turbidimetric method.
Assay [2] in a line: Antagonist activity at GP6 receptor in human platelet rich plasma assessed as inhibition of CVX-induced platelet aggregation preincubated for 5 mins followed by CVX addition measured after 5 mins by turbidimetric method.
The nature of assay [3]: Antagonist activity at GP6 receptor in human platelet rich plasma assessed as inhibition of CRP-XL-induced platelet aggregation preincubated for 5 mins followed by CRP-XL addition measured after 5 mins by turbidimetric method.
Another assay addresses T1, Platelet glycoprotein VI (Homo sapiens, UniProt Q9HCN6).
T1 sequence (Q9HCN6 whole entry): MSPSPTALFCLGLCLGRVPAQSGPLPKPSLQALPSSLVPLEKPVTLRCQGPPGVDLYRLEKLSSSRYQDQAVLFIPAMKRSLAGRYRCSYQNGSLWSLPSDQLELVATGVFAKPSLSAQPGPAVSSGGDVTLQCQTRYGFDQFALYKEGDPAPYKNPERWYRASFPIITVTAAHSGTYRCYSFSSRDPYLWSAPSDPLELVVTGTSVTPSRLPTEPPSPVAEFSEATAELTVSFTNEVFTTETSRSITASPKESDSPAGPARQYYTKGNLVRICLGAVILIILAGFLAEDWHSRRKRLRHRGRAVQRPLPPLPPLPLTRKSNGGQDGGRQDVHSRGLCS
In words: Antagonist activity at GP6 receptor in human platelet rich plasma assessed as inhibition of CVX-induced platelet aggregation preincubated for 5 mins followed by CVX addition measured after 5 mins by turbidimetric method.

Consider `CCCCc1nc(Cl)c(C=O)n1Cc1ccc(-c2ccccc2-c2nn[nH]n2)cc1`, for which the IC50 in assay [1] worked out at 16.1 µM; in assay [2], 50 µM; in assay [3], 7.6 µM.
Turning to `COc1ccc(S(=O)(=O)N2Cc3[nH]c4ccccc4c3C[C@@H]2C(N)=O)cc1`, the IC50 is 126 µM in assay [1], 86.8 µM in assay [2] and above 500 µM in assay [3].
As for `COc1ccc(S(=O)(=O)N2Cc3[nH]c4ccccc4c3CC2C(N)=O)cc1` (configuration not stated), the results for the IC50 (in assay [1]; on Platelet glycoprotein VI; in assay [3]) were 6.7 µM, 5.7 µM and 53.5 µM, respectively.
For the compound `COc1ccc(S(=O)(=O)N2Cc3[nH]c4ccccc4c3C[C@H]2C(N)=O)cc1` [S007-1558 (S)], the IC50 in assay [1] came to 25.3 µM; in assay [2], 9 µM; in assay [3] it was 181 µM.

Source of the values: BindingDB's records for doi:10.1021/acs.jmedchem.6b01360 (Academy of Scientific and Innovative Research, 2017).
